# Tested on: 292921-168-R-J2-PDC KRAS tumor spheroid viability
# Experiment: Anticancer human tumor 292921-168-R-J2-PDC patient-derived pancreatic carcinoma cell line growth inhibition [KRAS2]
# Conditions: spheroids with HUVEC and MSC; for IC50: curve of first compound; for viability, T/C: stronger effect = lower value
# Outline: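 Combination screen of spheroid viability in tumor-cell co-cultures with endothelial (HUVEC) and mesenchymal stem cell stroma. Each agent was tested in half-log dilutions, topping at clinical Cmax or at 10 microM without a known Cmax.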
# [1] = second compound 0.0316 µM, first compound 0.0316 µM
# [2] = second compound 0.0316 µM, first compound 0.1 µM
# [3] = second compound 0.0316 µM, first compound 0.316 µM
# [4] = second compound 0.0316 µM, first compound 1 µM
# [5] = second compound 0.0316 µM, first compound 3.16 µM
# [6] = second compound 0.1 µM, first compound 0.01 µM
# [7] = second compound 0.1 µM, first compound 0.0316 µM
# [8] = second compound 0.1 µM, first compound 0.1 µM
# [9] = second compound 0.1 µM, first compound 0.316 µM
# [10] = second compound 0.1 µM, first compound 1 µM
# [11] = second compound 0.1 µM, first compound 3.16 µM
# [12] = second compound 0.316 µM, first compound 0.01 µM
# [13] = second compound 0.316 µM, first compound 0.0316 µM
# [14] = second compound 0.316 µM, first compound 0.1 µM
# [15] = second compound 0.316 µM, first compound 0.316 µM
# [16] = second compound 0.316 µM, first compound 1 µM
# [17] = second compound 0.316 µM, first compound 3.16 µM
# [18] = second compound 1 µM, first compound 0.01 µM
# [19] = second compound 1 µM, first compound 0.0316 µM
# [20] = second compound 1 µM, first compound 0.1 µM
# [21] = second compound 1 µM, first compound 0.316 µM
# [22] = second compound 1 µM, first compound 1 µM
# [23] = second compound 1 µM, first compound 3.16 µM
# [24] = second compound 3.16 µM, first compound 0.01 µM
# [25] = second compound 3.16 µM, first compound 0.0316 µM
# [26] = second compound 3.16 µM, first compound 0.1 µM
# [27] = second compound 3.16 µM, first compound 0.316 µM
# [28] = second compound 3.16 µM, first compound 1 µM
# [29] = second compound 3.16 µM, first compound 3.16 µM
# [30] = second compound 0.0316 µM, first compound 10 µM
# [31] = second compound 0.1 µM, first compound 10 µM
# [32] = second compound 0.316 µM, first compound 10 µM
# [33] = second compound 1 µM, first compound 10 µM
# [34] = second compound 3.16 µM, first compound 10 µM
# [35] = second compound 10 µM, first compound 0.01 µM
# [36] = second compound 10 µM, first compound 0.0316 µM
# [37] = second compound 10 µM, first compound 0.1 µM
# 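Note: drug exposure lasted seven days after spheroids formed for three days.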
# 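Throughout, for viability, T/C: percent of DMSO vehicle control viability which is 100%.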
compound,measurement,setting,value
CC1COCCN1c1cc(-c2ccnn2C)c2ccnc(-c3ccn[nH]3)c2n1 (stereo not given) + C=CC(=O)N1CCN(c2nc(OCC3CCCN3C)nc3c2CCN(c2cccc4cccc(C)c24)C3)CC1CC#N,IC50,second compound 0.0316 µM,< 10 nM
same,IC50,second compound 0.1 µM,< 10 nM
same,IC50,second compound 0.316 µM,< 10 nM
same,IC50,second compound 1 µM,< 10 nM
same,IC50,second compound 3.16 µM,< 10 nM
same,"viability, T/C","second compound 0.0316 µM, first compound 0.01 µM",38.6%
same,"viability, T/C",[1],16.4%
same,"viability, T/C",[2],11.5%
same,"viability, T/C",[3],10%
same,"viability, T/C",[4],11.9%
same,"viability, T/C",[5],12.6%
same,"viability, T/C",[6],33.6%
same,"viability, T/C",[7],14%
same,"viability, T/C",[8],9.02%
same,"viability, T/C",[9],9.07%
same,"viability, T/C",[10],11%
same,"viability, T/C",[11],11.7%
same,"viability, T/C",[12],22.6%
same,"viability, T/C",[13],11%
same,"viability, T/C",[14],7.47%
same,"viability, T/C",[15],8.07%
same,"viability, T/C",[16],9.3%
same,"viability, T/C",[17],10.8%
same,"viability, T/C",[18],8.66%
same,"viability, T/C",[19],6.29%
same,"viability, T/C",[20],5.9%
same,"viability, T/C",[21],6.42%
same,"viability, T/C",[22],6.98%
same,"viability, T/C",[23],7.65%
same,"viability, T/C",[24],0.1%
same,"viability, T/C",[25],0.09%
same,"viability, T/C",[26],0.08%
same,"viability, T/C",[27],0.09%
same,"viability, T/C",[28],0.27%
same,"viability, T/C",[29],0.15%
CC1OCC2(CCN(c3cnc(Sc4ccnc(N)c4Cl)c(N)n3)CC2)C1N (stereo not given) + C=CC(=O)N1CCN(c2nc(OCC3CCCN3C)nc3c2CCN(c2cccc4cccc(C)c24)C3)CC1CC#N,IC50,second compound 0.0316 µM,384 nM
same,IC50,second compound 0.1 µM,227 nM
same,IC50,second compound 0.316 µM,94.6 nM
same,IC50,second compound 1 µM,< 31.6 nM
same,IC50,second compound 3.16 µM,< 31.6 nM
same,"viability, T/C",[1],92.1%
same,"viability, T/C",[2],68%
same,"viability, T/C",[3],48.8%
same,"viability, T/C",[4],45.6%
same,"viability, T/C",[5],32.9%
same,"viability, T/C",[30],28.4%
same,"viability, T/C",[7],82.9%
same,"viability, T/C",[8],61.2%
same,"viability, T/C",[9],43.8%
same,"viability, T/C",[10],36.9%
same,"viability, T/C",[11],37.6%
same,"viability, T/C",[31],26.8%
same,"viability, T/C",[13],66.1%
same,"viability, T/C",[14],47.8%
same,"viability, T/C",[15],37.4%
same,"viability, T/C",[16],37.3%
same,"viability, T/C",[17],27.5%
same,"viability, T/C",[32],25.3%
same,"viability, T/C",[19],20.5%
same,"viability, T/C",[20],18.6%
same,"viability, T/C",[21],16.4%
same,"viability, T/C",[22],17.4%
same,"viability, T/C",[23],16.1%
same,"viability, T/C",[33],15.8%
same,"viability, T/C",[25],0.11%
same,"viability, T/C",[26],0.11%
same,"viability, T/C",[27],0.11%
same,"viability, T/C",[28],0.1%
same,"viability, T/C",[29],0.11%
same,"viability, T/C",[34],0.17%
Cn1nccc1Nc1nccc(-c2cc3c(s2)C(C)(C)N(CCN2CCOCC2)C3=O)n1 + C=CC(=O)N1CCN(c2nc(OCC3CCCN3C)nc3c2CCN(c2cccc4cccc(C)c24)C3)CC1CC#N,IC50,second compound 0.0316 µM,93.1 nM
same,IC50,second compound 0.1 µM,77.8 nM
same,IC50,second compound 0.316 µM,59 nM
same,IC50,second compound 1 µM,< 31.6 nM
same,IC50,second compound 3.16 µM,< 31.6 nM
same,"viability, T/C",[1],86.7%
same,"viability, T/C",[2],47.5%
same,"viability, T/C",[3],20.6%
same,"viability, T/C",[4],13%
same,"viability, T/C",[5],11.6%
same,"viability, T/C",[30],11.9%
same,"viability, T/C",[7],80.2%
same,"viability, T/C",[8],41.4%
same,"viability, T/C",[9],21.6%
same,"viability, T/C",[10],12.5%
same,"viability, T/C",[11],11.1%
same,"viability, T/C",[31],11.6%
same,"viability, T/C",[13],63.5%
same,"viability, T/C",[14],38.6%
same,"viability, T/C",[15],16.2%
same,"viability, T/C",[16],12.2%
same,"viability, T/C",[17],9.88%
same,"viability, T/C",[32],11.9%
same,"viability, T/C",[19],30.9%
same,"viability, T/C",[20],18.4%
same,"viability, T/C",[21],8.49%
same,"viability, T/C",[22],8.54%
same,"viability, T/C",[23],7.25%
same,"viability, T/C",[33],8.46%
same,"viability, T/C",[25],0.45%
same,"viability, T/C",[26],0.11%
same,"viability, T/C",[27],0.11%
same,"viability, T/C",[28],0.1%
same,"viability, T/C",[29],0.1%
same,"viability, T/C",[34],0.16%
CC(=O)OC12COC1CC(O)C1(C)C(=O)C(O)C3=C(C)C(OC(=O)C(O)C(NC(=O)OC(C)(C)C)c4ccccc4)CC(O)(C(OC(=O)c4ccccc4)C21)C3(C)C (stereo not given) + CC1OCC2(CCN(c3cnc(Sc4ccnc(N)c4Cl)c(N)n3)CC2)C1N,IC50,second compound 0.1 µM,< 10 nM
same,IC50,second compound 0.316 µM,< 10 nM
same,IC50,second compound 1 µM,< 10 nM
same,IC50,second compound 3.16 µM,< 10 nM
same,IC50,second compound 10 µM,< 10 nM
same,"viability, T/C",[6],14.3%
same,"viability, T/C",[7],14.6%
same,"viability, T/C",[8],12.2%
same,"viability, T/C",[9],12.4%
same,"viability, T/C",[10],13.6%
same,"viability, T/C",[11],16.8%
same,"viability, T/C",[12],14.6%
same,"viability, T/C",[13],11.3%
same,"viability, T/C",[14],10.6%
same,"viability, T/C",[15],10.7%
same,"viability, T/C",[16],12.2%
same,"viability, T/C",[17],13.9%
same,"viability, T/C",[18],16.9%
same,"viability, T/C",[19],17.1%
same,"viability, T/C",[20],13.4%
same,"viability, T/C",[21],13.9%
same,"viability, T/C",[22],14.2%
same,"viability, T/C",[23],22.1%
same,"viability, T/C",[24],13.1%
same,"viability, T/C",[25],11.6%
same,"viability, T/C",[26],10.9%
same,"viability, T/C",[27],10.4%
same,"viability, T/C",[28],13.2%
same,"viability, T/C",[29],13.8%
same,"viability, T/C",[35],13.7%
same,"viability, T/C",[36],11.8%
same,"viability, T/C",[37],11.8%
same,"viability, T/C","second compound 10 µM, first compound 0.316 µM",11%
same,"viability, T/C","second compound 10 µM, first compound 1 µM",13.4%
same,"viability, T/C","second compound 10 µM, first compound 3.16 µM",13.7%
CN(C)C/C=C/C(=O)Nc1cc2c(Nc3ccc(F)c(Cl)c3)ncnc2cc1O[C@H]1CCOC1 + CC1OCC2(CCN(c3cnc(Sc4ccnc(N)c4Cl)c(N)n3)CC2)C1N,IC50,second compound 0.1 µM,> 100 nM
same,IC50,second compound 0.316 µM,0.889 nM
same,IC50,second compound 1 µM,> 100 nM
same,IC50,second compound 3.16 µM,< 0.316 nM
same,IC50,second compound 10 µM,> 100 nM
same,"viability, T/C","second compound 0.1 µM, first compound 0.000316 µM",82.2%
same,"viability, T/C","second compound 0.1 µM, first compound 0.001 µM",73.3%
same,"viability, T/C","second compound 0.1 µM, first compound 0.00316 µM",60.9%
same,"viability, T/C",[6],64.3%
same,"viability, T/C",[7],57.5%
same,"viability, T/C",[8],57.4%
same,"viability, T/C","second compound 0.316 µM, first compound 0.000316 µM",53.5%
same,"viability, T/C","second compound 0.316 µM, first compound 0.001 µM",48.3%
same,"viability, T/C","second compound 0.316 µM, first compound 0.00316 µM",46.9%
same,"viability, T/C",[12],45.9%
same,"viability, T/C",[13],52.3%
same,"viability, T/C",[14],46.1%
same,"viability, T/C","second compound 1 µM, first compound 0.000316 µM",92%
same,"viability, T/C","second compound 1 µM, first compound 0.001 µM",78%
same,"viability, T/C","second compound 1 µM, first compound 0.00316 µM",94%
same,"viability, T/C",[18],88.6%
same,"viability, T/C",[19],93%
same,"viability, T/C",[20],79.8%
same,"viability, T/C","second compound 3.16 µM, first compound 0.000316 µM",23.2%
same,"viability, T/C","second compound 3.16 µM, first compound 0.001 µM",25.3%
same,"viability, T/C","second compound 3.16 µM, first compound 0.00316 µM",28.8%
same,"viability, T/C",[24],29.8%
same,"viability, T/C",[25],31.2%
same,"viability, T/C",[26],33.2%
same,"viability, T/C","second compound 10 µM, first compound 0.000316 µM",50.8%
same,"viability, T/C","second compound 10 µM, first compound 0.001 µM",75.5%
same,"viability, T/C","second compound 10 µM, first compound 0.00316 µM",82.6%
same,"viability, T/C",[35],88.3%
same,"viability, T/C",[36],91.5%
same,"viability, T/C",[37],85.5%
